One data set concerns the target T1, ENaC (Homo sapiens, UniProt P37088+P51168+P51170).
T1 construct: host or cells: primary human bronchial epithelial cells (HBECs) differentiated at air-liquid interface
T1 sequence (P37088 1-669): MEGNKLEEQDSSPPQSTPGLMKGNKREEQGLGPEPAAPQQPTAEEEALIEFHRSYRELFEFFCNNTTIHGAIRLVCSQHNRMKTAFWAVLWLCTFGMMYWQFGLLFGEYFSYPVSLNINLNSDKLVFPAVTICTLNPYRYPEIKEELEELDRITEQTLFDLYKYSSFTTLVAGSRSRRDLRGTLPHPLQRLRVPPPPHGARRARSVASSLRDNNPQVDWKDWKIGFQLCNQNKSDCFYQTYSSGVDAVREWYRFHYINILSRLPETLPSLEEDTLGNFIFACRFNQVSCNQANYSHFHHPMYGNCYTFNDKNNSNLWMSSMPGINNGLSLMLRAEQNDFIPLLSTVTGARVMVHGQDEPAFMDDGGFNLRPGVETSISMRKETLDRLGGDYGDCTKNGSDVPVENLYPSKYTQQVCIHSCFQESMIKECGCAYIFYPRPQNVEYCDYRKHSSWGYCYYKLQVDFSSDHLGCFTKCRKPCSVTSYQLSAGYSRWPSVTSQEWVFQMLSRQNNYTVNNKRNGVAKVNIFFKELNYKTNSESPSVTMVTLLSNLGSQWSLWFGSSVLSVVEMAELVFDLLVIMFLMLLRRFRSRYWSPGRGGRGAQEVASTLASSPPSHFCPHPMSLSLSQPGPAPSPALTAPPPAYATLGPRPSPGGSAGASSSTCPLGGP
T1 sequence (P51168 1-640): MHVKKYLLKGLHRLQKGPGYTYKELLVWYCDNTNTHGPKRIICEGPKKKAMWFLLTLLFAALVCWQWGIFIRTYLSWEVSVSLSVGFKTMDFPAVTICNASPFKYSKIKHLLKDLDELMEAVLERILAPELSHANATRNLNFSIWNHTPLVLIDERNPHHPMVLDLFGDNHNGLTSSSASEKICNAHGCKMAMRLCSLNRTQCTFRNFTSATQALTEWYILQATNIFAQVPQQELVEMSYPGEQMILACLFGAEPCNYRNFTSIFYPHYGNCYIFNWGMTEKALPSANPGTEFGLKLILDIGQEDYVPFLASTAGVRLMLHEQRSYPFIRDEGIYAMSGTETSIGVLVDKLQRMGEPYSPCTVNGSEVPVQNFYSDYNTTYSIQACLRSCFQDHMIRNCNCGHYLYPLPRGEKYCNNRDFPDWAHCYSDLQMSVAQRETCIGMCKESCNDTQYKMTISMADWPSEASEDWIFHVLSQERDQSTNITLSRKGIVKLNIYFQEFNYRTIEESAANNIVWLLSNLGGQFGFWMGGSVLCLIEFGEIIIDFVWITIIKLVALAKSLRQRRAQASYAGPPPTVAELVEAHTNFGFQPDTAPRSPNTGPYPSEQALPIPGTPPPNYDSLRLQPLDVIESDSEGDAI
T1 sequence (P51170 1-649): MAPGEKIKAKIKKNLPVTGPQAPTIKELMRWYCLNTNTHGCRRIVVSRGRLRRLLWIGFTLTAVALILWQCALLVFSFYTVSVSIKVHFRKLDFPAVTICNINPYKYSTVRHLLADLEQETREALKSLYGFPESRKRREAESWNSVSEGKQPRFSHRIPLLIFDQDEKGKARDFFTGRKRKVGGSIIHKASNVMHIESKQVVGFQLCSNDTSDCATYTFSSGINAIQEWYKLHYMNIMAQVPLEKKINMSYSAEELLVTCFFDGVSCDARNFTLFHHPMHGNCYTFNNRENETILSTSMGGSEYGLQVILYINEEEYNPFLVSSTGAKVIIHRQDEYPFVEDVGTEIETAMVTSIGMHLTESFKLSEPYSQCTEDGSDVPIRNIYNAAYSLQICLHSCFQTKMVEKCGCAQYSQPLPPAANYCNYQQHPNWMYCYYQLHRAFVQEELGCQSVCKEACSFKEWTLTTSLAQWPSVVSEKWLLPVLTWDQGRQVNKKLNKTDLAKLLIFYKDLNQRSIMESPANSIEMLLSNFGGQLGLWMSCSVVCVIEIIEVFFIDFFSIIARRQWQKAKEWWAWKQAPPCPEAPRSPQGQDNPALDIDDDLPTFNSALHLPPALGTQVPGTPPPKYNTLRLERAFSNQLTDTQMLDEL
Kind of data set: Short circuit current assay to determine ENaC blocker potency in human bronchial epithelial cells. The class given is cell-based. The following applies: 50% inhibition of total amiloride-sensitive ISC, apical addition, read-out: Averages.ENaC IC50 (nM) Avg. In outline:
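Primary human bronchial epithelial cells at air-liquid interface (days 14–21) were voltage-clamped at 0 mV in Ussing chambers (Ringer, pH 7.4, 37° C.). Compounds were added apically as cumulative concentrations, then 10 μM amiloride. IC50 was taken as 50% inhibition of amiloride-sensitive ISC.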

The nature of data set [1]: Bronchoalveolar lavage (BAL) procedure: compound levels after intratracheal administration. In kind it is in vivo. To be noted: bronchoalveolar lavage fluid (BAL), other: intratracheal, 0.1 mg/kg, rat, 0.1 mg/mL solution in 5% dextrose, 1 mL/Kg, BAL 6 hours after administration, LC/MS/MS. As for the experimental part:
Example 69—Bronchoalveolar Lavage (BAL) Procedure A 0.1 mg/mL solution of ENaC inhibitor in 5% dextrose was administered intratracheally to a rat weighing 225-250 g. A volume of 1 mL/Kg was used. After 6 hours, lungs were lavaged with 3×4 mL of sterile saline. A 1 mL aliquot was subsequently snap frozen. Lungs were excised, weighed and snap frozen. Compound levels in the BAL and lung tissue were subsequently determined using LC/MS/MS bioanalysis.

The structures appear in SMILES notation.

The values that follow come from patent US12371436B2, “Substituted benzodiazoliums as ENaC inhibitors” (ENTERPRISE THERAPEUTICS LIMITED, priority 2016, dated 2025).

As usually defined, the IC50 is the midpoint of a concentration-inhibition curve.

For `CCn1c(CNC(=O)c2nc3cc[nH]c3nc2N)[n+](CC)c2ccc(C(=O)NCCOCCOCCOCCN(C[C@H](O)[C@@H](O)[C@H](O)[C@H](O)CO)C[C@H](O)[C@@H](O)[C@H](O)[C@H](O)CO)cc21` [Example 59, 2-[({3-amino-5H-pyrrolo[2,3-b]pyrazin-2-yl}formamido)methyl]-1,3-diethyl-5-{[(14S,15R,16R,17R)-14,15,16,17,18-pentahydroxy-12-[(2S,3R,4R,5R)-2,3,4,5,6-pentahydroxyhexyl]-3,6,9-trioxa-12-azaoctadecan-1-yl]carbamoyl}-1H-1,3-benzodiazol-3-ium], the IC50 on ENaC turned out to be 171 nM. Also, the concentration at 6 h in data set [1] was 197 ng/mL.
For `CCn1c(CNC(=O)c2nc3cc[nH]c3nc2N)[n+](CC)c2ccc(C(=O)NCCc3ccc(-c4ccc(CCN(C[C@H](O)[C@@H](O)[C@H](O)[C@H](O)CO)C[C@H](O)[C@@H](O)[C@H](O)[C@H](O)CO)cc4)cc3)cc21` [Example 60, 2-[({3-amino-5H-pyrrolo[2,3-b]pyrazin-2-yl}formamido)methyl]-6-({2-[4′-(2-{bis[(2S,3R,4R,5R)-2,3,4,5,6-pentahydroxyhexyl]amino}ethyl)-[1,1′-biphenyl]-4-yl]ethyl}carbamoyl)-1,3-diethyl-1H-1,3-benzodiazol-3-ium] the same measures were 22 nM and 176 ng/mL.
Turning to `CCn1c(CNC(=O)c2nc3cc[nH]c3nc2N)[n+](CC)c2ccc(C(=O)NCC[C@H](NCCCN(C[C@H](O)[C@@H](O)[C@H](O)[C@H](O)CO)C[C@H](O)[C@@H](O)[C@H](O)[C@H](O)CO)C(N)=O)cc21` [Example 61, 2-[({3-amino-5H-pyrrolo[2,3-b]pyrazin-2-yl}formamido)methyl]-6-{[(3S)-3-[(3-{bis[(2S,3R,4R,5R)-2,3,4,5,6-pentahydroxyhexyl]amino}propyl)amino]-3-carbamoylpropyl]carbamoyl}-1,3-diethyl-1H-1,3-benzodiazol-3-ium], the IC50 at ENaC was 43 nM. The concentration at 6 h in data set [1] came to 167 ng/mL.
With `CCn1c(CNC(=O)c2nc3cc[nH]c3nc2N)[n+](CC)c2ccc(C(=O)NCCCCc3ccc(CCC(NCCCN(C[C@H](O)[C@@H](O)[C@H](O)[C@H](O)CO)C[C@H](O)[C@@H](O)[C@H](O)[C@H](O)CO)C(N)=O)cc3)cc21` (stereo partly drawn) [Example 62, 2-[({3-amino-5H-pyrrolo[2,3-b]pyrazin-2-yl}formamido)methyl]-6-{[4-(4-{3-[(3-{bis[(2S,3R,4R,5R)-2,3,4,5,6-pentahydroxyhexyl]amino}propyl)amino]-3-carbamoylpropyl}phenyl)butyl]carbamoyl}-1,3-diethyl-1H-1,3-benzodiazol-3-ium], the IC50 on ENaC amounted to 24 nM. Moreover, the concentration at 6 h in data set [1] was found to be 140 ng/mL.
